Source: patent US5391540A, “Substituted pyridine compounds” (Rohm and Haas Company, priority 1993, dated 1995)

How the values were obtained:
Assay in all cases: Pre-emergent herbicidal activity (Table A)
Format in all cases: in vivo
Downy Brome = conditions: Bromus tectorum, pre-emergence, Dobr, 11.2 kg/ha, 10-14 days, read-out: herbicidal rating (% inhibition)
How it was run: (§1)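 Seeds or vegetative propagules were set on topsoil compacted to 0.95 to 1.27 cm below the pan rim, then covered with soil thoroughly mixed with a known amount of test compound in acetone or water carrier. Ratings follow a scale of percent inhibition per species.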

Velvetleaf = conditions: Abutilon theophrasti, pre-emergence, Vele, 11.2 kg/ha, 10-14 days, read-out: herbicidal rating (% inhibition)
How it was run: as §1

Morningglory = conditions: Ipomoea, pre-emergence, Mogl, 11.2 kg/ha, 10-14 days, read-out: herbicidal rating (% inhibition)
How it was run: as §1

Barnyardgrass = conditions: Echinochloa crus-galli, pre-emergence, Bygr, 11.2 kg/ha, 10-14 days, read-out: herbicidal rating (% inhibition)
How it was run: as §1

Yellow Nutsedge = conditions: Cyperus, pre-emergence, Yens, 11.2 kg/ha, 10-14 days, read-out: herbicidal rating (% inhibition)
How it was run: as §1

Cocklebur = conditions: Xanthium strumarium, pre-emergence, Cobu, 11.2 kg/ha, 10-14 days, read-out: herbicidal rating (% inhibition)
How it was run: as §1

Indian Mustard = conditions: Brassica juncea, pre-emergence, Inmu, 11.2 kg/ha, 10-14 days, read-out: herbicidal rating (% inhibition)
How it was run: (§2)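 Compound incorporated into the cover-soil layer over sown seed at a rate equivalent to 11.2 kg/ha (acetone or water carrier). Greenhouse growth with watering as needed; ratings reflect percent inhibition per species, recorded around day 11 (range 10–14).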

Wild Buckwheat = conditions: Fallopia convolvulus, pre-emergence, Wibw, 11.2 kg/ha, 10-14 days, read-out: herbicidal rating (% inhibition)
How it was run: as §2

Annual Bluegrass = conditions: pre-emergence, Anbg, 11.2 kg/ha, 10-14 days, read-out: herbicidal rating (% inhibition)
How it was run: as §2

Seedling Johnsongrass = conditions: Sorghum halepense, pre-emergence, Sejg, 11.2 kg/ha, 10-14 days, read-out: herbicidal rating (% inhibition)
How it was run: as §2

COC(=O)c1c(OC)nc(C(F)(F)F)c(C2OCCS2(=O)=O)c1CC(C)C (stereo not shown) [Compound 127, 3-pyridinecarboxylic acid, 2-methoxy-4-(2-methylpropyl)-5-(3,3-dioxo-1,3-oxathiolan-2-yl)-6-(trifluoromethyl)-, methyl ester]
inhibition at 11200 g/ha (Downy Brome): 75 to 100% | inhibition at 11200 g/ha (Velvetleaf): 25 to 49% | inhibition at 11200 g/ha (Morningglory): 25 to 49% | inhibition at 11200 g/ha (Barnyardgrass): 75 to 100% | inhibition at 11200 g/ha (Yellow Nutsedge): 0 to 24% | inhibition at 11200 g/ha (Cocklebur): 0 to 24% | inhibition at 11200 g/ha (Indian Mustard): 50 to 74% | inhibition at 11200 g/ha (Wild Buckwheat): 50 to 74% | inhibition at 11200 g/ha (Annual Bluegrass): 75 to 100% | inhibition at 11200 g/ha (Seedling Johnsongrass): 75 to 100%

COC(=O)c1c(OC)nc(C(F)(F)F)c(C=NCCO)c1CC(C)C [Compound 128]
inhibition at 11200 g/ha (Downy Brome): 75 to 100% | inhibition at 11200 g/ha (Velvetleaf): 25 to 49% | inhibition at 11200 g/ha (Morningglory): 50 to 74% | inhibition at 11200 g/ha (Barnyardgrass): 75 to 100% | inhibition at 11200 g/ha (Yellow Nutsedge): 0 to 24% | inhibition at 11200 g/ha (Cocklebur): 0 to 24% | inhibition at 11200 g/ha (Indian Mustard): 75 to 100% | inhibition at 11200 g/ha (Wild Buckwheat): 50 to 74% | inhibition at 11200 g/ha (Annual Bluegrass): 75 to 100% | inhibition at 11200 g/ha (Seedling Johnsongrass): 75 to 100%

COC(=O)c1c(OC)nc(C(F)(F)F)c(-c2nccs2)c1CC(C)C [Compound 129, 3-pyridinecarboxylic acid, 2-methoxy-4-(2-methylpropyl)-5-(2-thiazolyl)-6-(trifluoromethyl)-, methyl ester]
inhibition at 11200 g/ha (Downy Brome): 75 to 100% | inhibition at 11200 g/ha (Velvetleaf): 75 to 100% | inhibition at 11200 g/ha (Morningglory): 75 to 100% | inhibition at 11200 g/ha (Barnyardgrass): 75 to 100% | inhibition at 11200 g/ha (Yellow Nutsedge): 75 to 100% | inhibition at 11200 g/ha (Cocklebur): 50 to 74% | inhibition at 11200 g/ha (Indian Mustard): 75 to 100% | inhibition at 11200 g/ha (Wild Buckwheat): 75 to 100% | inhibition at 11200 g/ha (Annual Bluegrass): 75 to 100% | inhibition at 11200 g/ha (Seedling Johnsongrass): 75 to 100%

COC(=O)c1c(OC)nc(C(F)(F)F)c(-c2ncco2)c1CC(C)C [Compound 130, 3-pyridinecarboxylic acid, 2-methoxy-4-(2-methylpropyl)-5-(2-oxazolyl)-6-(trifluoromethyl)-, methyl ester]
inhibition at 11200 g/ha (Downy Brome): 75 to 100% | inhibition at 11200 g/ha (Velvetleaf): 75 to 100% | inhibition at 11200 g/ha (Morningglory): 75 to 100% | inhibition at 11200 g/ha (Barnyardgrass): 75 to 100% | inhibition at 11200 g/ha (Yellow Nutsedge): 75 to 100% | inhibition at 11200 g/ha (Cocklebur): 25 to 49% | inhibition at 11200 g/ha (Indian Mustard): 75 to 100% | inhibition at 11200 g/ha (Wild Buckwheat): 75 to 100% | inhibition at 11200 g/ha (Annual Bluegrass): 75 to 100% | inhibition at 11200 g/ha (Seedling Johnsongrass): 75 to 100%

COc1nc(C(F)(F)F)c(C(=O)n2cccn2)c(CC(C)C)c1C(=O)SC [Compound 131, 3-pyridinecarbothioic acid, 2-methoxy-4-(2-methylpropyl)-5-(1H-pyrazo1-1-ylcarbonyl)-6-(trifluoromethyl)-, S-methyl ester]
inhibition at 11200 g/ha (Downy Brome): 75 to 100% | inhibition at 11200 g/ha (Velvetleaf): 75 to 100% | inhibition at 11200 g/ha (Morningglory): 75 to 100% | inhibition at 11200 g/ha (Barnyardgrass): 75 to 100% | inhibition at 11200 g/ha (Yellow Nutsedge): 75 to 100% | inhibition at 11200 g/ha (Cocklebur): 50 to 74% | inhibition at 11200 g/ha (Indian Mustard): 75 to 100% | inhibition at 11200 g/ha (Wild Buckwheat): 75 to 100% | inhibition at 11200 g/ha (Annual Bluegrass): 75 to 100% | inhibition at 11200 g/ha (Seedling Johnsongrass): 75 to 100%

COC(=O)c1c(OC)nc(C(F)(F)F)c(C(=O)N2CCCO2)c1CC(C)C [Compound 132, 3-pyridinecarboxylic acid, 5-(2-isoxazolidinecarbonyl)-2-methoxy-4-(2-methylpropyl)-6-(trifluoromethyl)-, methyl ester]
inhibition at 11200 g/ha (Downy Brome): 75 to 100% | inhibition at 11200 g/ha (Velvetleaf): 75 to 100% | inhibition at 11200 g/ha (Morningglory): 50 to 74% | inhibition at 11200 g/ha (Barnyardgrass): 75 to 100% | inhibition at 11200 g/ha (Yellow Nutsedge): 0 to 24% | inhibition at 11200 g/ha (Cocklebur): 0 to 24% | inhibition at 11200 g/ha (Indian Mustard): 75 to 100% | inhibition at 11200 g/ha (Wild Buckwheat): 75 to 100% | inhibition at 11200 g/ha (Annual Bluegrass): 75 to 100% | inhibition at 11200 g/ha (Seedling Johnsongrass): 75 to 100%

COc1nc(C(F)(F)F)c(C(=O)Cl)c(CC(C)C)c1C(=O)SC [Compound 133, 3-pyridinecarbothioic acid, 5-(chlorocarbonyl)-2-methoxy-4-(2-methylpropyl)-6-(trifluoromethyl)-, S-methyl ester]
inhibition at 11200 g/ha (Downy Brome): 0 to 24% | inhibition at 11200 g/ha (Velvetleaf): 0 to 24% | inhibition at 11200 g/ha (Morningglory): 0 to 24% | inhibition at 11200 g/ha (Barnyardgrass): 0 to 24% | inhibition at 11200 g/ha (Yellow Nutsedge): 0 to 24% | inhibition at 11200 g/ha (Cocklebur): 0 to 24% | inhibition at 11200 g/ha (Indian Mustard): 25 to 49% | inhibition at 11200 g/ha (Wild Buckwheat): 0 to 24% | inhibition at 11200 g/ha (Annual Bluegrass): 0 to 24% | inhibition at 11200 g/ha (Seedling Johnsongrass): 0 to 24%

COc1nc(C(F)(F)F)c(CO)c(CC(C)C)c1C(=O)SC [Compound 134, 3-pyridinecarbothioic acid, 5-(hydroxymethyl)-2-methoxy-4-(2-methylpropyl)-6-(trifluoromethyl)-, S-methyl ester]
inhibition at 11200 g/ha (Downy Brome): 0 to 24% | inhibition at 11200 g/ha (Velvetleaf): 50 to 74% | inhibition at 11200 g/ha (Morningglory): 0 to 24% | inhibition at 11200 g/ha (Barnyardgrass): 75 to 100% | inhibition at 11200 g/ha (Yellow Nutsedge): 0 to 24% | inhibition at 11200 g/ha (Cocklebur): 0 to 24% | inhibition at 11200 g/ha (Indian Mustard): 25 to 49% | inhibition at 11200 g/ha (Wild Buckwheat): 0 to 24% | inhibition at 11200 g/ha (Annual Bluegrass): 75 to 100% | inhibition at 11200 g/ha (Seedling Johnsongrass): 0 to 24%

COc1nc(C(F)(F)F)c(C=O)c(CC(C)C)c1C(=O)SC [Compound 135, 3-pyridinecarbothioic acid, 5-formy1-2-methoxy-4-(2-methylpropyl)-6-(trifluoromethyl)-, S-methyl ester]
inhibition at 11200 g/ha (Downy Brome): 75 to 100% | inhibition at 11200 g/ha (Velvetleaf): 50 to 74% | inhibition at 11200 g/ha (Morningglory): 0 to 24% | inhibition at 11200 g/ha (Barnyardgrass): 75 to 100% | inhibition at 11200 g/ha (Yellow Nutsedge): 0 to 24% | inhibition at 11200 g/ha (Cocklebur): 0 to 24% | inhibition at 11200 g/ha (Indian Mustard): 75 to 100% | inhibition at 11200 g/ha (Wild Buckwheat): 25 to 49% | inhibition at 11200 g/ha (Annual Bluegrass): 75 to 100% | inhibition at 11200 g/ha (Seedling Johnsongrass): 50 to 74%

COc1nc(C(F)(F)F)c(C2OCCCO2)c(CC(C)C)c1C(=O)SC [Compound 136, 3-pyridinecarbothioic acid, 5-(1,3-dioxan-2-yl)-2-methoxy-4-(2-methylpropyl)-6-(trifluoromethyl)-, S-methyl ester]
inhibition at 11200 g/ha (Downy Brome): 75 to 100% | inhibition at 11200 g/ha (Velvetleaf): 50 to 74% | inhibition at 11200 g/ha (Morningglory): 50 to 74% | inhibition at 11200 g/ha (Barnyardgrass): 75 to 100% | inhibition at 11200 g/ha (Yellow Nutsedge): 25 to 49% | inhibition at 11200 g/ha (Cocklebur): 50 to 74% | inhibition at 11200 g/ha (Indian Mustard): 75 to 100% | inhibition at 11200 g/ha (Wild Buckwheat): 75 to 100% | inhibition at 11200 g/ha (Annual Bluegrass): 75 to 100% | inhibition at 11200 g/ha (Seedling Johnsongrass): 75 to 100%

COC(=O)c1c(OC)nc(C(F)(F)F)c(C(=O)Cl)c1C1CCC1 [Compound 138, 3-pyridinecarboxylic acid, 5-(chlorocarbonyl)-4-cyclobuty1-2-methoxy-6-(trifluoromethyl)-, methyl ester]
inhibition at 11200 g/ha (Downy Brome): 0 to 24% | inhibition at 11200 g/ha (Velvetleaf): 0 to 24% | inhibition at 11200 g/ha (Morningglory): 0 to 24% | inhibition at 11200 g/ha (Barnyardgrass): 0 to 24% | inhibition at 11200 g/ha (Yellow Nutsedge): 0 to 24% | inhibition at 11200 g/ha (Cocklebur): 0 to 24% | inhibition at 11200 g/ha (Indian Mustard): 0 to 24% | inhibition at 11200 g/ha (Wild Buckwheat): 0 to 24% | inhibition at 11200 g/ha (Annual Bluegrass): 0 to 24% | inhibition at 11200 g/ha (Seedling Johnsongrass): 0 to 24%

COC(=O)c1c(OC)nc(C(F)(F)F)c(C=O)c1C1CCC1 [Compound 139, 3-pyridinecarboxylic acid, 4-cyclobuty1-5-formy1-2-methoxy-6-(trifluoromethyl)-, methyl ester]
inhibition at 11200 g/ha (Downy Brome): 75 to 100% | inhibition at 11200 g/ha (Velvetleaf): 75 to 100% | inhibition at 11200 g/ha (Morningglory): 50 to 74% | inhibition at 11200 g/ha (Barnyardgrass): 75 to 100% | inhibition at 11200 g/ha (Yellow Nutsedge): 0 to 24% | inhibition at 11200 g/ha (Cocklebur): 0 to 24% | inhibition at 11200 g/ha (Indian Mustard): 75 to 100% | inhibition at 11200 g/ha (Wild Buckwheat): 75 to 100% | inhibition at 11200 g/ha (Annual Bluegrass): 75 to 100% | inhibition at 11200 g/ha (Seedling Johnsongrass): 75 to 100%

COC(=O)c1c(OC)nc(C(F)(F)F)c(C(=O)n2cncn2)c1C1CCC1 [Compound 141]
inhibition at 11200 g/ha (Downy Brome): 75 to 100% | inhibition at 11200 g/ha (Velvetleaf): 75 to 100% | inhibition at 11200 g/ha (Morningglory): 75 to 100% | inhibition at 11200 g/ha (Barnyardgrass): 75 to 100% | inhibition at 11200 g/ha (Yellow Nutsedge): 50 to 74% | inhibition at 11200 g/ha (Cocklebur): 0 to 24% | inhibition at 11200 g/ha (Indian Mustard): 75 to 100% | inhibition at 11200 g/ha (Wild Buckwheat): 75 to 100% | inhibition at 11200 g/ha (Annual Bluegrass): 75 to 100% | inhibition at 11200 g/ha (Seedling Johnsongrass): 75 to 100%
